The term inhibition denotes the relative decrease from the control value, in per cent. As a reminder, the IC50 is the midpoint of a concentration-inhibition curve.

The test system of series [1] is RAW264.7. The series is described as follows: Anti-inflammatory activity in mouse RAW264.7 cells assessed as inhibition of LPS-stimulated NO production preincubated with LPS and measured after 20 hrs by Griess reagent-based assay. Format: functional, cell-based. On the technique in general: Nitrite, measured by Griess reagent, commonly stands in for NO production.

Series [2] concerns RAW264.7. The series is described as follows: Cytotoxicity against mouse RAW264.7 cells at 6.25 to 100 uM measured after 24 hrs by MTT assay. Format: cell-based. The following applies: raw264.7, 24 h. On the technique in general: Tetrazolium assays rely on reduction of a dye to a coloured formazan, in cell work by metabolically active cells.
The test system of series [3] is RAW264.7. The series is described as follows: Anti-inflammatory activity in mouse RAW264.7 cells assessed as inhibition of LPS-stimulated NO production at 15 uM preincubated with LPS and measured after 20 hrs by Griess reagent-based assay relative to control. Format: functional.
The test system of series [4] is RAW264.7. The series is described as follows: Antiinflammatory activity in mouse RAW264.7 cells assessed as effect on LPS-induced TNF-alpha mRNA expression after 12 to 24 hrs by FQ-PCR analysis. It is filed as functional, cell-based.
Series [5] relates to RAW264.7. The series is described as follows: Antiinflammatory activity in mouse RAW264.7 cells assessed as decrease in LPS-induced IL-6 secretion after 24 hrs by ELISA. It is filed as functional, cell-based. (In an ELISA, binding on a coated surface is turned into a signal by an enzyme label.)
Series [6] concerns RAW264.7. The series is described as follows: Antiinflammatory activity in mouse RAW264.7 cells assessed as decrease in LPS-induced IL-6 mRNA expression after 6 to 24 hrs by FQ-PCR analysis. Format: functional, cell-based.
Series [7] relates to RAW264.7. The series can be described thus: Antiinflammatory activity in mouse RAW264.7 cells assessed as decrease in LPS-induced TNF-alpha secretion after 24 hrs by ELISA. It is filed as functional, cell-based.
In series [8] the target is Transcription factor p65 (Mus musculus) (UniProt Q04207). The series can be described thus: Inhibition of LPS-induced NF-kappaB p65 translocation in mouse RAW264.7 cells at 3 to 12 uM incubated for 2 hrs by DAPI staining based immunofluorescence assay. Format: cell-based.
Chain of Transcription factor p65 (Mus musculus) (Q04207 whole entry): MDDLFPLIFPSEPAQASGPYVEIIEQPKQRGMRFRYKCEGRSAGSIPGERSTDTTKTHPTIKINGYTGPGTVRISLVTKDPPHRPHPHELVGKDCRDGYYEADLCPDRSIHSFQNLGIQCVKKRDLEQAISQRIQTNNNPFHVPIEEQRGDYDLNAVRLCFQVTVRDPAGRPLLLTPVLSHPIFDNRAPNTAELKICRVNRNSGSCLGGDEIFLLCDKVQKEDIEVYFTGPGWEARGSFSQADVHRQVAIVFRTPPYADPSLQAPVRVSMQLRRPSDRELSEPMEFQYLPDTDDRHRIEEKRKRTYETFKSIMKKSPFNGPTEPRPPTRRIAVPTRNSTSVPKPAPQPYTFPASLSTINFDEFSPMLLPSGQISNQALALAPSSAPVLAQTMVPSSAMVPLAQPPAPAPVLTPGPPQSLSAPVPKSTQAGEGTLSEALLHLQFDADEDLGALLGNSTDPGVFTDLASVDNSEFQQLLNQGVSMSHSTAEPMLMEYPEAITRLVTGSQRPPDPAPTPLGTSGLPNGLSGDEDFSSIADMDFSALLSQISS

Each structure is given as a SMILES string. The source made the active and inactive calls. No cut-off for these calls is given here.

Consider `CC(=O)O[C@]12C[C@@H](C)[C@H](OC(=O)c3ccccc3)[C@@H]1/C=C(\C)[C@H](O)CC(=O)C(C)(C)C/C=C(\C)C2=O`, for which, in the series with RAW264.7 [1], the inhibition result is “inactive”. Further, in the series with RAW264.7 [2], the Activity result is reported as “Non-Toxic”.

In the case of `CC(=O)O[C@@H]1[C@H](C)/C=C/C(C)(C)C(=O)C[C@@H](O)/C(C)=C/[C@H]2[C@@H](OC(=O)c3ccccc3)[C@H](C)C[C@]12OC(C)=O`, the inhibition entry in the series on RAW264.7 [1] was “inactive”. Also, the Activity entry with RAW264.7 [2] is “Non-Toxic”.

For the compound `COc1cc(/C=C/c2ccccc2)c(C(=O)O)c(O)c1CC=C(C)C`, in the series on RAW264.7 [3], the inhibition at 15 µM worked out at 30.2%.

In the case of `CC(=O)O[C@@H]1[C@@H](C)/C=C/C(C)(C)C(=O)C[C@@H](O)/C(C)=C/[C@H]2[C@@H](OC(=O)c3ccccc3)[C@H](C)C[C@]12OC(C)=O`, the inhibition result in the series with RAW264.7 [1] was “inactive”. In addition, the Activity entry in the series with RAW264.7 [2] is “Non-Toxic”.

On to `CC(=O)O[C@]12C[C@@H](C)[C@H](OC(=O)c3ccccc3)[C@@H]1/C=C(\C)[C@H](OC(=O)c1ccccc1)CC(=O)C(C)(C)/C=C/[C@@H](C)C2=O`, for which the inhibition entry in the series on RAW264.7 [1] was “inactive”. In addition, the Activity result in the series with RAW264.7 [2] was “Non-Toxic”.

With `CC(=O)O[C@]12C[C@@H](C)[C@H](OC(=O)c3ccccc3)[C@@H]1/C=C(\C)C(=O)CC(=O)C(C)(C)C/C=C(\C)C2=O`, the inhibition entry in the series with RAW264.7 [1] was “inactive”. For the same compound, the Activity entry in the series with RAW264.7 [2] is recorded as “Non-Toxic”.

For `CC(=O)O[C@]12C[C@H](C)[C@H](OC(=O)c3ccccc3)[C@@H]1/C=C(\C)[C@H](OC(=O)c1ccccc1)CC(=O)C(C)(C)/C=C/[C@@H](C)C2=O`, the inhibition entry with RAW264.7 [1] was “inactive”. Also, in the series on RAW264.7 [2], the Activity entry is reported as “Non-Toxic”.

As to `CC(=O)O[C@@H]1[C@@H](C)[C@H](C=C(C)C)C(=O)C[C@@H](OC(C)=O)/C(C)=C/[C@H]2[C@@H](OC(=O)c3ccccc3)[C@H](C)C[C@]12OC(C)=O`, in the series with RAW264.7 [4], the result was inactive. Besides, the IC50 with RAW264.7 [1] stood at 7.4 µM. Also, the Activity result in the series on RAW264.7 [5] is “Dose-dependent effect”; in the series on RAW264.7 [2], “Non-Toxic”; with RAW264.7 [6], “Dose-dependent effect”; with RAW264.7 [7], “Dose-dependent effect”. Further, the inhibition result in series [8] is “Active”.

`CC(=O)O[C@@H]1[C@H](C)/C=C/C(C)(C)C(=O)C[C@@H](OC(=O)c2ccccc2)/C(C)=C/[C@H]2[C@@H](OC(=O)c3ccccc3)[C@H](C)C[C@]12OC(C)=O` [EUPHOSCOPIN C]: the inhibition entry in the series with RAW264.7 [1] is “inactive”. Moreover, the Activity entry in the series with RAW264.7 [2] is given as “Non-Toxic”.

For `CC(=O)O[C@@H]1[C@@H](C)/C=C/C(C)(C)C(=O)C[C@@H](OC(C)=O)/C(C)=C/[C@H]2[C@@H](OC(=O)c3ccccc3)[C@@H](C)C[C@]12OC(C)=O`, the inhibition result in the series with RAW264.7 [1] is “inactive”. The Activity entry with RAW264.7 [2] was “Non-Toxic”.

Take `CC(=O)O[C@@H]1[C@@H](C)/C=C/C(C)(C)C(=O)C[C@@H](OC(C)=O)/C(C)=C/[C@H]2[C@@H](OC(=O)c3ccccc3)[C@H](C)C[C@]12OC(C)=O`: the inhibition entry in the series on RAW264.7 [1] was “inactive”. Besides, the Activity entry in the series with RAW264.7 [2] is reported as “Non-Toxic”.

With `CC(=O)O[C@@H]1[C@H](C)/C=C/C(C)(C)C(=O)CC/C(C)=C/[C@H]2[C@@H](OC(=O)c3ccccc3)[C@H](C)C[C@]12OC(C)=O`, the inhibition result with RAW264.7 [1] is “inactive”. Moreover, the Activity entry in the series with RAW264.7 [2] is “Non-Toxic”.

In the case of `C[C@@H]1C[C@H]2[C@@H]3CCC4=CC(=O)C=C[C@]4(C)[C@@]3(F)[C@@H](O)C[C@]2(C)[C@@]1(O)C(=O)CO` [DEXAMETHASONE], the inhibition at 15 µM in the series with RAW264.7 [3] came to 34.2%.

Source of the values: ChEMBL document CHEMBL4334500, “Macrocyclic Diterpenoids from Euphorbia helioscopia and Their Potential Anti-inflammatory Activity” (J Nat Prod, 2019).
